Read-outs that look alike come from different tables or passages of the source.
What was measured:
[1] = biological target: T1, α4β1 integrin (Homo sapiens, UniProt P05556+P13612); assay: Molt4 T-cell leukemia adhesion assay (inhibition of α4β1-mediated cell adhesion to CS-1 peptide); assay type: cell-based
T1 construct: adding a volume of 80 μL consisted of 1.3×10^5 Molt4 cells; endogenous in cells; host or cells: Molt4 T-cell leukemia cells
Text: α4β1 integrins are cell surface heterodimeric glycoproteins that mediate cell adhesion to vascular cell adhesion molecule-1 (VCAM-1 or CD 106) as well as to extracellular matrix (ECM) protein fibronectin (FN). Integrin expression and function depend on cell activation. The dynamic changes in integrin affinity, avidity, or activation state are implicated in cell migration, survival and apoptosis, cancer development and metastasis. Binding affinities (IC50s) of the ligands were studied in a Molt4 T-cell leukemia adhesion assay by inhibiting the α4β1-mediated cell adhesion to CS-1 peptide ([…]), which is the binding motif of fibronectin to α4β1 receptor.
General Procedure for Cell Adhesion Assay:
96-well plates were prepared by coating them with 5 μg/mL neutravidin for a one-hour period, followed by adding […] biotin-conjugated CS-1 peptide. The wells were then blocked with 1% […] in phosphate buffer saline (PBS) solution, followed by adding a volume of 80 μL consisted of 1.3×10^5 Molt4 cells, and finally different dilutions of tested ligands in binding buffer (1 mM Mn^2+ TBS), were added to each well. To allow binding, the plates were incubated for 30 min at 37° C., followed by washing of unbound cells with PBS. Bound cells were fixed with 10% formalin buffered in phosphate for 30 min and stained with 0.5% crystal violet. After washing and drying at room temperature, the dye was dissolved in 1% SDS, and absorbance at 570 nm was measured using a 96-well TECAN OD UV/Vis spectrophotometer. Inhibition was calculated as a percentage resulting from the concentration-dependent curve.

[2] = compound by itself; cited from earlier work
[3] = xenograft model, optical and radioimaging; cited from earlier work

T1 sequence (P13612 34-1032): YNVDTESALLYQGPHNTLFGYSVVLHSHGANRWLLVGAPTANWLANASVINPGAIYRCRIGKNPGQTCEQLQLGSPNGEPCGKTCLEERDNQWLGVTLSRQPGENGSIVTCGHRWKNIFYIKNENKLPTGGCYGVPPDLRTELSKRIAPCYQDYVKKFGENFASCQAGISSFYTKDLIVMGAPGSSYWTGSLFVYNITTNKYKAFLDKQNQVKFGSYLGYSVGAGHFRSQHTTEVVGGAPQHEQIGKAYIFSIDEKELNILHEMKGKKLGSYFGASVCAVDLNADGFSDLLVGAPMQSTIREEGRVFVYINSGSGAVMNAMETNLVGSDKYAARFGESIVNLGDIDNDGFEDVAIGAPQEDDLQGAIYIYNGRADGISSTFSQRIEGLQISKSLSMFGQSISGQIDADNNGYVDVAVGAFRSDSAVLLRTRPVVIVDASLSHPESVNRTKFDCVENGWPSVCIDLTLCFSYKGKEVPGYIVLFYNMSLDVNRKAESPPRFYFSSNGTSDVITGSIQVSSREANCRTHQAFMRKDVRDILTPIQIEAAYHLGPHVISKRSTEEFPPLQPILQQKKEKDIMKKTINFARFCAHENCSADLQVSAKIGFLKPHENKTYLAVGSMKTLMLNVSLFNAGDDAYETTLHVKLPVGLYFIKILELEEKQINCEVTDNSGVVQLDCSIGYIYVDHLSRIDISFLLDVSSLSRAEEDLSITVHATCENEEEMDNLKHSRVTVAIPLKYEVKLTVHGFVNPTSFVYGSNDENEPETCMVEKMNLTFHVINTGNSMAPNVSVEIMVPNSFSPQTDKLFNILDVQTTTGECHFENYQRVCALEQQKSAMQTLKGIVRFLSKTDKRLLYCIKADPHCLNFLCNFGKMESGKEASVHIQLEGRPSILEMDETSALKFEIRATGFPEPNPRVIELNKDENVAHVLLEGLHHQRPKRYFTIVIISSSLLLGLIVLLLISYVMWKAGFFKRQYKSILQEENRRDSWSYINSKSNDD
T1 sequence (P05556 21-798): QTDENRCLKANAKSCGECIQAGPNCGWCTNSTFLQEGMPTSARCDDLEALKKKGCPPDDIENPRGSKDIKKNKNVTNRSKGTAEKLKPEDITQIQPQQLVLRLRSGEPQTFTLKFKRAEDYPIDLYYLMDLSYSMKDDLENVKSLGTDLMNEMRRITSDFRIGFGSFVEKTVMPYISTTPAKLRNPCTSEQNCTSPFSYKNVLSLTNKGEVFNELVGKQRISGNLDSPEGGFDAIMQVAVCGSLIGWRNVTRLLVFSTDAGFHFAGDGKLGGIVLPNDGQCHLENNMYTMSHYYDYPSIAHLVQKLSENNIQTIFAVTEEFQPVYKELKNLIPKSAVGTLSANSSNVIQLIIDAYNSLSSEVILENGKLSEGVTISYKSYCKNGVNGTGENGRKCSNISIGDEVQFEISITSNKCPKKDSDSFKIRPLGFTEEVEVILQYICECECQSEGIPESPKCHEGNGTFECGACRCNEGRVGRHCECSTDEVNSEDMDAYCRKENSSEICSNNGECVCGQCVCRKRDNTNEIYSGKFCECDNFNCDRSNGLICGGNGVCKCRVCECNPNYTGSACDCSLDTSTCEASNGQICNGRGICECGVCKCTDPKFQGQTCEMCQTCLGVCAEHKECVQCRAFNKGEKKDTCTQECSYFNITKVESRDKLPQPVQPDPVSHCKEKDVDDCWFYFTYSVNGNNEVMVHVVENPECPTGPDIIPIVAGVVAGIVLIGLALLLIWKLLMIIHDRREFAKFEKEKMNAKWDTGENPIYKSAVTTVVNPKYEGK

NC(=O)C1(NC(=O)[C@H](CCCC(=O)O)NC(=O)[C@H](CCCCNC(=O)/C=C/c2cccnc2)NC(=O)c2ccc(Nc3nc4cc(Br)ccc4[nH]3)cc2)CCCCC1 [KLCA12]
IC50 ([1]; Molt4 cells, adhesion to biotin-conjugated CS-1 peptide, 1 mM Mn2+ TBS, 30 min at 37° C.): 0.115 nM

NC(=O)C1(NC(=O)C(CCCC(=O)O)NC(=O)C(CCCCNC(=O)C=Cc2cccnc2)NC(=O)Cc2ccc(Nc3nc4ccccc4s3)cc2)CCCCC1 (stereo not drawn) [KLCA14]
IC50 [1]: 0.053 nM

Cc1cccc2oc(Nc3ccc(CC(=O)NC(CCCCNC(=O)C=Cc4cccnc4)C(=O)NC(CCCC(=O)O)C(=O)NC4(C(N)=O)CCCCC4)cc3)nc12 (stereo not drawn) [KLCA15]
IC50 [1]: 4 nM

NC(=O)C1(NC(=O)C(CCCC(=O)O)NC(=O)C(CCCCNC(=O)C=Cc2cccnc2)NC(=O)Cc2ccc(Nc3nc4ccccc4o3)cc2)CCCCC1 (stereo not drawn) [KLCA16]
IC50 [1]: 2 nM

Cc1ccccc1NC(=O)Nc1ccc(CC(=O)N[C@@H](CCCCNC(=O)/C=C/c2cccnc2)C(=O)N[C@@H](CCCC(=O)O)C(=O)NC2(C(N)=O)CCCCC2)cc1 [LLP2A]
water solubility [2]: not very water soluble
uptake in the kidneys [3]: rather high uptake in the kidneys
